In one series the test system is HTB-54. The series can be described thus: cells. The class given is cell-based. Conditions: Homo sapiens; for GI50: read-out: GI50 HTB54; for CC50: read-out: LC50 HTB54; for IC (TGI): read-out: TGI HTB54. Summed up: (§1)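 MTT cytotoxicity: 1 × 10^4 cells/well in RPMI + 10% FBS exposed to increasing compound concentrations for 48 h at 37 °C, 5% CO2, then MTT for 4 h and formazan dissolved in DMSO. Initial screen at 50 and 10 µM; at least 3 independent experiments in quadruplicate, SEM reported.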

For a further series, the system named is PC-3. The series can be described thus: cells. The format is cell-based. Conditions: Homo sapiens; for GI50: read-out: GI50 PC-3; for LC50: read-out: LC50 PC-3; for IC (TGI): read-out: TGI PC-3. An outline of the steps: as §1
Series [1] in a line: MTT cytotoxicity in nonmalignant mammary gland derived cells. Conditions: human. The class given is cell-based. Summed up:
(§2)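 184B5 cells grown in supplemented DMEM/F12, BEAS-2B in RPMI with 10% FBS. 1 × 10^4 cells/well exposed to increasing compound concentrations for 48 h at 37 °C, 5% CO2, then MTT 4 h and formazan dissolved in DMSO. At least 3 independent experiments in quadruplicate; cisplatin as reference.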

For the next series, the system named is 184B5. Described as above. Conditions: for GI50 / IC (TGI): Homo sapiens; for GI50: read-out: GI50 184B5; for IC (TGI): read-out: TGI 184B5. The class given is cell-based. Summed up:
as §2

The subject of series [2] is MCF-7. Description: Cell cycle phase distribution by flow cytometry. The class given is cell-based, human. Conditions: 24 h, different doses. Here is the method:
For the MCF-7 cell line, both cell cycle analysis and the cell death percentage were determined using the Apo-Direct kit (BD Pharmingen) based on the TUNEL technique, according to the manufacturer’s instructions. Cells were seeded in 25 cm^2 flasks (3 × 10^6 for 24 h of treatment, 2 × 10^6 for 48 h and 10^6 for 72 h) treated with DMSO (negative control), 6 µM of camptothecin (positive control) and different concentrations of I.1f, I.2f and II.2d.
After treatment, cells were collected and fixed with 1% paraformaldehyde (Sigma) in PBS (pH = 7.4), incubated in ice for 40 min, collected by centrifugation, washed with PBS and incubated with 70% ethanol for 30 min at −20 °C. After fixation, cells were washed twice with PBS and incubated for 1 h at 37 °C with FITC dUTP-DNA Labeling Solution. Cells were then rinsed and incubated in the dark for 30 min at room temperature with PI/RNase staining buffer before being analyzed by flow cytometry (Coulter Epics XL, Beckman Coulter Flow cytometer). Then, cells were treated with compounds I.1f (80 µM), I.2f (30 µM) and II.2d (5 µM) at different times (from 8 to 72 h) following the same methodology.
Apoptosis and cell cycle arrest are typical mechanisms of action for many anticancer drugs, including selenocompounds [34, 35, 36]. In a first approach, the effect of the selected compounds on cell cycle progression and the induction of apoptosis was studied in MCF-7 cell cultures. Analyses were performed by flow cytometry using the Apo-Direct kit, based on the TUNEL technique under the conditions described by the manufacturer. The cells were treated with the corresponding compound at different concentrations and time points. Camptothecin was used as a positive control at 6 µM.
To further understand the mechanism of action of these potent compounds, their effects on cell cycle distribution in MCF-7 were studied by flow cytometry. This assay was carried out with different concentrations (Figure 6) and different time points (Figure 7).
Background: Flow cytometry measures light scatter and fluorescence of single cells or particles in a stream.

In series [3] the test system is MCF-7. Description: Autophagy and caspase inhibition assays (wortmannin, Z-VAD-FMK pretreatment). Conditions: I.1f 80 µM 72 h, I.2f 30 µM 24 h, II.2d 20 µM 24 h; for Compound-induced cell death after preincubation with wortmannin: 100 nM wortmannin 1 h; for Compound-induced cell death after preincubation with Z-VAD-FMK: 50 µM Z-VAD-FMK 1 h. The class given is cell-based, human. Here is the method:
For autophagy and caspase inhibition assays, cells were pretreated with 100 nM of autophagy inhibitor (wortmannin, Santa Cruz) and 50 µM of pan-caspase inhibitor (Z-VAD-FMK, BD Pharmingen) for 1 h. The cells were treated with the compounds I.2f (30 µM) and II.2d (20 µM) for 24 h and I.1f (80 µM) for 72 h. Samples were processed following the same methodology stated above. DMSO was used as a negative control for both inhibitors.
Apoptosis and autophagy are considered as two recognized pathways for anticancer agents due to their effects on cell survival. In the next step, in order to investigate whether the cell death pathway is related to apoptosis or autophagy, we explored the effect of pre-treated cells with either an autophagy inhibitor (wortmannin) or a pan-caspase inhibitor (Z-VAD-FMK). According to the previous results, determinations were performed after treatment with 80 μM of I.1f for 72 h, 30 μM of I.2f for 24 h and 20 μM of II.2d for 24 h.

For series [4], the system named is MCF-7. Description: cells. Conditions: Homo sapiens, MCF7, 48 h; for activity at 10 µM: read-out: Cell growth (%) MCF-7; for GI50: read-out: GI50 MCF-7, 48 h, average ± SEM; for CC50: read-out: LC50 MCF-7; for IC (TGI): read-out: TGI MCF-7.
The subject of another series is HT-29. Description: cells. Conditions: Homo sapiens, HT-29, 48 h; for activity at 10 µM: read-out: Cell growth (%) HT-29; for GI50: read-out: GI50 HT-29; for CC50: read-out: LC50 HT-29; for IC (TGI): read-out: TGI HT-29.
[5] abbreviates: nonmalignant cells, 48 h, read-out: LC50 184B5.
[6] abbreviates: 184B5, nonmalignant cells, 48 h.

Read-outs that look alike come from different tables or passages of the source.

With `N#C[Se]c1ccc(NC(=O)c2ccc(C(F)(F)F)cc2)cc1` [I.2f], in the series on HTB-54 (HTB-54, 48 h, average ± SEM), the GI50 came to 29.8 ± 1.5 µM, the CC50 turned out to be 84.4 ± 5.2 µM and the IC (TGI) was determined as 57.1 ± 3.3 µM. For the same compound, in the series with PC-3 (PC-3, 48 h, average ± SEM), the GI50 came to 28.5 ± 0.7 µM, the LC50 was found to be 77.7 ± 0.6 µM and the IC (TGI) stood at 53.1 ± 0.6 µM. In addition, the LC50 (50% lethal concentration) in series [1] (setting [5]) was over 100 µM. In addition, in the series on 184B5 (setting [6]), the GI50 was found to be 16.6 µM and the IC (TGI) is over 100 µM. The “Cell cycle phase distribution” value in the series with MCF-7 [2] is recorded as “increased the number of cells in the S phase dose-dependently”. In the series on MCF-7 [3], the “Compound-induced cell death after preincubation with wortmannin” value is “prevented cell death” and the “Compound-induced cell death after preincubation with Z-VAD-FMK” value is recorded as “did not”. Besides, in the series on MCF-7 [4], the activity at 10 µM turned out to be 44.8%, the GI50 is under 1 µM, the CC50 turned out to be 42.2 ± 0.8 µM and the IC (TGI) was found to be 6.2 ± 0.4 µM. Moreover, in the series with HT-29, the activity at 10 µM is 26.7%, the GI50 is 0.6 ± 0.4 µM, the CC50 was over 100 µM and the IC (TGI) came out at 79.2 ± 0.3 µM.
For `CCOP(=O)(Nc1ccc([Se]C#N)cc1)OCC` [II.2d], in the series on HTB-54 (HTB-54, 48 h), the GI50 came out at 1.6 ± 0.4 µM, the CC50 amounted to 4.8 ± 0.2 µM and the IC (TGI) came to 3.2 ± 0.3 µM. Further, in the series on PC-3 (PC-3, 48 h), the GI50 stood at 1.9 ± 0.1 µM, the LC50 was determined as 99.9 ± 9.5 µM and the IC (TGI) is 4.4 ± 0.1 µM. For the same compound, in series [1] (setting [5]), the CC50 at 48 h came out at 8.93 µM. For the same compound, in the series on 184B5 (184B5, 48 h), the GI50 was 5.7 µM and the IC (TGI) is 7.31 µM. Besides, in the series with 184B5 (breast), the “Selectivity index (SI) = GI50 (184B5)/GI50 (MCF-7)” value amounted to 6.33. Besides, the “Cell cycle phase distribution” value in the series with MCF-7 [2] was “arrested them in G0/G1 phase”. In the series on MCF-7 [3], the “Compound-induced cell death after preincubation with wortmannin” value is “could not prevent cell death” and the “Compound-induced cell death after preincubation with Z-VAD-FMK” value is recorded as “prevented it”. In the series with MCF-7 [4], the activity at 10 µM is -17.2%, the GI50 was under 1 µM, the CC50 worked out at 8.4 ± 0.1 µM and the IC (TGI) was found to be 4.1 ± 0.1 µM. In the series on HT-29, the activity at 10 µM was -63.4%, the GI50 came to 5 ± 0.8 µM, the CC50 came out at 9.5 ± 0.4 µM and the IC (TGI) was found to be 7.3 ± 0.2 µM.
For the compound `O=C(Nc1ccc([Se][Se]c2ccc(NC(=O)c3ccc(C(F)(F)F)cc3)cc2)cc1)c1ccc(C(F)(F)F)cc1` [I.1f], the CC50 is 75.4 ± 1.7 µM in the series on HTB-54 (HTB-54, 48 h); 54.6 ± 0.7 µM with MCF-7 [4]; over 100 µM in the series on HT-29. The GI50 in the series with HTB-54 (HTB-54, 48 h, average ± SEM) was 25.1 ± 3.1 µM; in the series with PC-3 (PC-3, 48 h, average ± SEM), 1.2 ± 1.5 µM; in the series on 184B5 (setting [6]), 6.59 µM; in the series with HT-29 it was 0.1 µM. Further, the IC (TGI) in the series on HTB-54 (HTB-54, 48 h, average ± SEM) was 50.2 ± 2.4 µM; in the series with PC-3 (PC-3, 48 h, average ± SEM), 32.9 ± 3.1 µM; with 184B5 (setting [6]), 44 µM; in the series with MCF-7 [4], 13 ± 0.3 µM; in the series on HT-29, 5.7 ± 0.9 µM. Moreover, the LC50 with PC-3 (PC-3, 48 h) is 65 ± 0.6 µM. In addition, in series [1], the LC50 (50% lethal concentration) at 48 h amounted to 92.3 µM. The “Cell cycle phase distribution” value with MCF-7 [2] was “increased the number of cells in the S phase dose-dependently”. The “Compound-induced cell death after preincubation with wortmannin” value in the series with MCF-7 [3] is reported as “prevented cell death”. Also, the “Compound-induced cell death after preincubation with Z-VAD-FMK” value in the series with MCF-7 [3] is given as “did not”. Moreover, the activity at 10 µM in the series on MCF-7 [4] is 9.1%; with HT-29, -18.4%.

As usually defined, the GI50 is the concentration giving 50% growth inhibition. For orientation: LC50 means the concentration that kills 50% of the test population.

For the origin of these results see article PMC8069832, “New Amides and Phosphoramidates Containing Selenium: Studies on Their Cytotoxicity and Antioxidant Activities in Breast Cancer” (Antioxidants, 2021).
